Laboratory results as given in ChEMBL document CHEMBL1145222, “Synthesis and in vitro study of novel Mannich bases as antibacterial agents” (2005).

Tests used:
Assay type in all cases: functional
[1] = system: Klebsiella pneumoniae; assay: Zone of inhibition of Klebsiella pneumoniae at compound concentration of 160 mg/mL
[2] = system: Bacillus subtilis; assay: Zone of inhibition of Bacillus subtilis at compound concentration of 40 mg/mL
[3] = system: Klebsiella pneumoniae; assay: Zone of inhibition of Klebsiella pneumoniae at compound concentration of 40 mg/mL
[4] = system: Salmonella enterica subsp. enterica serovar Typhi; assay: Zone of inhibition of Salmonella typhae at compound concentration of 160 mg/mL
[5] = system: Bacillus subtilis; assay: Zone of inhibition of Bacillus subtilis at compound concentration of 80 mg/mL
[6] = system: Salmonella enterica subsp. enterica serovar Typhi; assay: Zone of inhibition of Salmonella typhae at compound concentration of 80 mg/mL
[7] = system: Salmonella enterica subsp. enterica serovar Typhi; assay: Zone of inhibition of Salmonella typhae at compound concentration of 40 mg/mL
[8] = system: Klebsiella pneumoniae; assay: Zone of inhibition of Klebsiella pneumoniae at compound concentration of 80 mg/mL
[9] = system: Bacillus subtilis; assay: Zone of inhibition of Bacillus subtilis at compound concentration of 160 mg/mL
[10] = system: Pseudomonas aeruginosa; assay: Zone of inhibition of Pseudomonas aeruginosa at compound concentration of 40 mg/mL
[11] = system: Staphylococcus aureus; assay: Zone of inhibition of Staphylococcus aureus at compound concentration of 160 mg/mL
[12] = system: Escherichia coli; assay: Zone of inhibition of Escherichia coli at compound concentration of 160 mg/mL
[13] = system: Escherichia coli; assay: Zone of inhibition of Escherichia coli at compound concentration of 40 mg/mL
[14] = system: Pseudomonas aeruginosa; assay: Zone of inhibition of Pseudomonas aeruginosa at compound concentration of 80 mg/mL
[15] = system: Staphylococcus aureus; assay: Zone of inhibition of Staphylococcus aureus at compound concentration of 80 mg/mL
[16] = system: Escherichia coli; assay: Zone of inhibition of Escherichia coli at compound concentration of 80 mg/mL
[17] = system: Pseudomonas aeruginosa; assay: Zone of inhibition of Pseudomonas aeruginosa at compound concentration of 160 mg/mL
[18] = system: Staphylococcus aureus; assay: Zone of inhibition of Staphylococcus aureus at compound concentration of 40 mg/mL
[19] = system: Escherichia coli; assay: Zone of inhibition Escherichia coli Escherichia coli at compound concentration of 80 mg/mL
[20] = system: Escherichia coli; assay: Zone of inhibition Escherichia coli Escherichia coli at compound concentration of 160 mg/mL
[21] = system: Escherichia coli; assay: Zone of inhibition Escherichia coli at compound concentration of 40 mg/mL
[22] = system: Escherichia coli; assay: Zone of inhibition Escherichia coli at compound concentration of 80 mg/mL
[23] = system: Escherichia coli; assay: Zone of inhibition Escherichia coli at compound concentration of 160 mg/mL
[24] = system: Klebsiella pneumoniae; assay: Zone of inhibition Klebsiella pneumoniae at compound concentration of 40 mg/mL
[25] = system: Klebsiella pneumoniae; assay: Zone of inhibition Klebsiella pneumoniae at compound concentration of 80 mg/mL
[26] = system: Klebsiella pneumoniae; assay: Zone of inhibition Klebsiella pneumoniae at compound concentration of 160 mg/mL

Row | Compound | Inhibition [1] [mm] | Inhibition [2] [mm] | Inhibition [3] [mm] | Inhibition [4] [mm] | Inhibition [5] [mm] | Inhibition [6] [mm] | Inhibition [7] [mm] | Inhibition [8] [mm] | Inhibition [9] [mm] | Inhibition [10] [mm] | Inhibition [11] [mm] | Inhibition [12] [mm] | Inhibition [13] [mm] | Inhibition [14] [mm] | Inhibition [15] [mm] | Inhibition [16] [mm] | Inhibition [17] [mm] | Inhibition [18] [mm] | further results
1 | COc1ccc(Cl)cc1C(=O)NCN(c1ccccc1)c1ccccc1 | 8 | 7.5 | 7 | 8.5 | 7.5 | 7.5 | 7.5 | 7 | 8 |  |  |  |  |  |  |  |  |  | 
2 | Nc1ccc(S(N)(=O)=O)cc1 [SULFANILAMIDE] |  | 10.5 |  | 7.5 | 11.5 | 7.5 | 7 |  | 13 | 13.5 | 25 | 20.5 | 16.5 | 15.5 | 22.5 | 18 | 17.5 | 20.5 | 
3 | COc1ccc(Cl)cc1C(=O)NCNc1ccc(S(=O)(=O)Nc2ncccn2)cc1 | 8.5 | 7 | 7.5 | 7.5 | 7 | 7 | 7 | 8 | 7.5 | 7.5 | 15 | 9.5 | 8 | 7.5 | 11.5 | 8.5 | 8.5 | 9.5 | 
4 | Nc1ccc(S(=O)(=O)Nc2ncccn2)cc1 [SULFADIAZINE] | 15 | 8.5 | 12.5 | 9 | 9.5 | 7.5 | 7 | 13.5 | 13.5 |  | 9.5 | 12.5 | 8.5 |  | 7.5 | 9.5 |  | 7 | 
5 | COc1ccc(Cl)cc1C(=O)NCN1CCOCC1 | 14.5 | 8.5 | 10.5 |  | 9 |  |  | 12.5 | 10.5 | 9.5 | 16.5 | 12.5 | 9.5 | 10.5 | 13.5 | 10.5 | 12 | 11 | 
6 | Cc1cc(NS(=O)(=O)c2ccc(N)cc2)no1 [SULFAMETHOXAZOLE] | 11.5 | 15.5 | 8.5 | 12.5 | 18.5 | 9 | 8.5 | 9 | 20 |  | 21 |  | 18.5 |  | 20.5 | 20.5 |  | 19.5 | 
7 | CC(=O)[N-]S(=O)(=O)c1ccc(N)cc1.[Na+] |  | 9.5 |  |  | 10 |  |  |  | 15 |  | 24 |  |  |  | 21 |  |  | 19.5 | 
8 | COc1ccc(Cl)cc1C(=O)NCNc1ccc(S(=O)(=O)NN)cc1 | 9.5 | 7 | 7 | 8 | 7.5 | 7.5 | 7 | 7.5 | 11.5 | 7.5 | 11 |  |  | 8 | 8.5 |  | 8.5 | 7.5 | Inhibition [19]: 7.5 mm; Inhibition [20]: 8.5 mm; Inhibition [21]: 7 mm
9 | COc1ccc(Cl)cc1C(=O)NCN(C)C | 7.5 |  | 7 |  |  |  |  | 7.5 |  | 7 |  |  |  | 7.5 |  |  | 7.5 |  | 
10 | COc1ccc(Cl)cc1C(=O)NCNc1ccc(S(=O)(=O)[N-]C(C)=O)cc1.[Na+] | 15.5 | 10.5 | 10 | 22 | 12.5 | 14.5 | 10.5 | 12.5 | 16.5 | 9.5 | 22 |  |  | 12.5 | 14.5 |  | 14.5 | 10.5 | Inhibition [21]: 9.5 mm; Inhibition [22]: 10.5 mm; Inhibition [23]: 13 mm
11 | COc1ccc(Cl)cc1C(=O)NCN(CCO)CCO |  | 7 |  |  | 7.5 |  |  |  | 8.5 |  |  |  |  |  |  |  |  |  | Inhibition [24]: 7 mm; Inhibition [25]: 7.5 mm; Inhibition [21]: 7 mm; Inhibition [22]: 7.5 mm; Inhibition [23]: 8.5 mm; Inhibition [26]: 7.5 mm
